Drawing on the Deep4Chem optical property database, this text covers absorption maximum for 46 compounds.

The nature of the data set: solvent given as SMILES.

Take `CCCCCCCCOc1ccc(-c2c3c4n(c(-c5ccc(OCCCCCCCC)cc5)c3c3n2[B-](F)(F)[n+]2c(ccc5cc(C(C)(C)C)ccc52)C=3C#N)[B-](F)(F)[n+]2c(ccc3cc(C(C)(C)C)ccc32)C=4C#N)cc1`: for the setting “in ClC(Cl)Cl”, the absorption maximum worked out at 754 nm.

Take `CC1(C)c2ccccc2N(c2ccc3c(ccc4nc5ccc6cc(N7c8ccccc8C(C)(C)c8ccccc87)ccc6c5nc43)c2)c2ccccc21`: the absorption maximum is, setting by setting: (in C1CCCCC1) 413 nm; (in C1CCOC1) 416 nm; (in CN(C)C=O) 418 nm; (in Cc1ccccc1) 416 nm; (in ClCCl) 416 nm.

In turn, `C(=C\c1cc(/C=C/c2ccccc2)cc(/C=C/c2ccccc2)c1)/c1ccccc1` returned an absorption maximum (in ClCCl) of 317 nm.

For the setting “in Cc1ccccc1”, `CCCCCCCCCC1(CCCCCCCCC)c2cc(C#Cc3ccc(/C=C/c4ccc(N(CCCCCCCC)CCCCCCCC)cc4)cc3)ccc2-c2ccc(C#Cc3ccc(/C=C/c4ccc(N(CCCCCCCC)CCCCCCCC)cc4)cc3)cc21` gave an absorption maximum of 411 nm.

For the compound `CCOC(=O)CSc1nc(C)c(CC)c(C#N)c1C#N`, the absorption maximum (in c1ccccc1) amounted to 357 nm.

Turning to `CN(C)c1ccc(/C=C/C=C/C2=NC3C(=O)NC(N)=NC3N2[C@H]2C[C@H](O)[C@@H](CO)O2)cc1` (stereo partly drawn), the absorption maximum is recorded as 352 nm (in C1COCCO1), 349 nm (in CC#N) and 343 nm (in CO).

`CCN(CC)c1ccc(Nc2cc3oc(-c4ccc(C#N)cc4)nc3c3ccccc23)c(C)c1` returned an absorption maximum (in C1COCCO1) of 415 nm.

Where the note is “in CCCCCC”, `C/C=C/c1cccc(OC)c1` displayed an absorption maximum of 293 nm.

Regarding `O=C1c2ccc3c4c(NC5CCCCC5)cc5c6c(ccc(c7c(NC8CCCCC8)cc(c2c37)C(=O)N1C1CCCCC1)c64)C(=O)N(C1CCCCC1)C5=O`, the absorption maximum (in ClC(Cl)Cl) is recorded as 703 nm.

As for `COc1ccc(-n2nc(C(=O)c3ccc(Cl)cc3)c(N3CCCC3)n2)cc1`, the absorption maximum (in CC#N) was 381 nm.

Take `CC(C)(C)c1ccc2c(c1)c1cc(C(C)(C)C)ccc1n2-c1ccc(-c2nc(-c3ccc(P(=O)(c4ccccc4)c4ccccc4)cc3)nc(-c3ccc(P(=O)(c4ccccc4)c4ccccc4)cc3)n2)cc1`: the absorption maximum by setting is: (in C1CCOC1) 364.73 nm; (in CC#N) 361.43 nm; (in CC(C)=O) 366.18 nm; (in CN(C)C=O) 365.92 nm; (in Cc1ccccc1) 375.96 nm; (in ClC(Cl)Cl) 435.78 nm. The absorption maximum (in ClCCl) was 375.3 nm.

In the case of `CCn1c2sccc2c2c3nsnc3c3c4ccsc4n(CC)c3c21`, the absorption maximum reads like this: (in C1CCOC1) 424 nm; (in CCOC(C)=O) 422 nm; (in CN(C)C=O) 430 nm; (in Cc1ccccc1) 423 nm; (in ClCCl) 425 nm.

Consider `O=C1C=C(Nc2ccc([N+](=O)[O-])cc2)C(=O)c2ccccc21`, for which the absorption maximum (in CO) is 451 nm.

Where the note is “in Cc1ccccc1”, `O=S(=O)(c1ccc(-c2ccc(-n3c4ccccc4c4ccccc43)cc2)cc1)c1ccc(-c2ccc(-n3c4ccccc4c4ccccc43)cc2)cc1` showed an absorption maximum of 341 nm.

`CC(C)(C)c1cc2ccc3c(N(c4ccccc4)c4ccccc4)cc(N(c4ccccc4)c4ccccc4)c4ccc(c1)c2c34` yielded an absorption maximum (in ClCCl) of 414 nm.

Turning to `O=P1(c2ccccc2)C(c2ccccc2)=Cc2cc3ccccc3cc21` (stereo not drawn), for the setting “in ClCCl”, the absorption maximum came to 387 nm.

As for `Nc1ccc(-c2ccc(N)cc2)cc1`, the absorption maximum was found to be 306 nm (in C1CCOC1); 289 nm (in C1COCCO1); 286 nm (in CC#N); 279 nm (in CCCCCC); 285 nm (in CCOC(C)=O); 299 nm (in CN(C)C=O). The same compound returned an absorption maximum (in CO) of 281 nm; an absorption maximum (in CS(C)=O) of 292 nm; an absorption maximum (in Cc1ccccc1) of 295 nm; an absorption maximum (in ClC(Cl)Cl) of 305 nm; an absorption maximum (in ClCCl) of 286 nm; an absorption maximum (in O) of 281 nm.

The compound `C[Si]1(C)c2cc(-c3ccc(N(c4ccccc4)c4ccccc4)cc3)ccc2C=Cc2ccc(-c3ccc(N(c4ccccc4)c4ccccc4)cc3)cc21` gave an absorption maximum (in ClCCl) of 435 nm.

For the setting “in CCCCCC”, `CC(C)[Si](C#Cc1c2nc3c(nc2c(C#C[Si](C(C)C)(C(C)C)C(C)C)c2nc4c(nc12)C1c2ccccc2C4c2ccccc21)C1c2ccccc2C3c2ccccc21)(C(C)C)C(C)C` showed an absorption maximum of 450 nm.

`CCCCC(CC)COc1cc(OCC(CC)CCCC)c2c#cc3ccc4c(c3)c3cc(c#cc5cc(c#cc6ccc7c(c6)c6cc(c#cc1c2)ccc6n7CC(CC)CCCC)c(C(CCCC)OCCC)cc5C(CCCC)OCCC)ccc3n4CC(CC)CCCC` (stereo not drawn) had an absorption maximum (in ClCCl) of 340 nm.

As to `c1ccc(-c2nc(-c3ccccn3)sc2N(c2ccccc2)c2ccccc2)cc1`, under “in ClC(Cl)Cl”, the absorption maximum came to 388 nm.

For the setting “in ClC(Cl)Cl”, `COc1cc(OC)c2cc(-c3ccc(-c4cc5c(OC)cc(OC)cc5oc4=O)cc3)c(=O)oc2c1` had an absorption maximum of 372 nm.

Consider `N#C/C(=C\c1ccc([N+](=O)[O-])cc1)c1nc(-c2ccccc2)cs1`, for which the absorption maximum (in CC#N) turned out to be 382 nm.

As for `COc1ccccc1C1=[N+]2C(=Cc3c4cc5ccccc5cc4c(-c4ccccc4OC)n3[B-]2(F)F)c2cc3ccccc3cc21`, the absorption maximum (in C1CCOC1) came out at 738 nm.

As to `CC(C)(C)c1ccc(/C=C/c2ccc(N(c3ccc(/C=C/c4ccc(C(C)(C)C)cc4)cc3)c3ccc(-c4nc5ccccc5nc4-c4ccc(N(c5ccc(/C=C/c6ccc(C(C)(C)C)cc6)cc5)c5ccc(/C=C/c6ccc(C(C)(C)C)cc6)cc5)cc4)cc3)cc2)cc1`, the absorption maximum reads like this: (in C1CCOC1) 375 nm; (in Cc1ccccc1) 373 nm.

In the case of `COCCOCCOCCOCC(COCCOCCOCCOC)Oc1cc(/C=C/c2ccc(/C=C(\C#N)c3ccncc3)cc2)c(OC(COCCOCCOCCOC)COCCOCCOCCOC)cc1/C=C/c1ccc(/C=C(\C#N)c2ccncc2)cc1`, the absorption maximum (in ClCCl) is given as 445 nm.

As for `CCCCN1C(=O)c2cccc3c(N(C)C)ccc(c23)C1=O`, the absorption maximum amounted to 416 nm (in CC#N), 428 nm (in CS(C)=O) and 403 nm (in Cc1ccccc1).

On to `CCN(CC)c1ccc2c(-c3ccccc3C(=O)O)c3c([o+]c2c1)/C(=C/c1nc(C)n2ccccc12)CCC3`, for which the absorption maximum (in ClCCl) was determined as 701 nm.

Regarding `O=CC1=Cc2cocc2C=C(C=O)C1`, for the setting “in ClC(Cl)Cl”, the absorption maximum turned out to be 303 nm.

Compound `COc1cc(OC)cc(C2=C(c3cc(OC)c(OC)c(OC)c3)C3=Nc4c(-c5cc(OC)c(OC)c(OC)c5)c(-c5cc(OC)cc(OC)c5)c(-c5ccc(C(C)(C)C)cc5)n4[B-](F)(F)[N+]3=C2c2ccc(C(C)(C)C)cc2)c1` displayed an absorption maximum (in Cc1ccccc1) of 674 nm.

`CN(C)c1cccc(/C=C/c2ncc(-c3ccc(OCc4ccccc4)c(OCc4ccccc4)c3)o2)c1` showed an absorption maximum (in ClCCl) of 350 nm.

Under “in Cc1ccccc1”, `CC1(C)c2ccccc2N(c2ccccc2)c2ccc(-c3ccc(S(=O)(=O)c4ccc(-c5ccc6c(c5)C(C)(C)c5ccccc5N6c5ccccc5)cc4)cc3)cc21` yielded an absorption maximum of 363.38 nm.

`Cc1c2c(c(C)c3ccccc13)C1=CC3Nc4ccccc4NC3C=C12` (stereo not drawn) had an absorption maximum (in ClC(Cl)Cl) of 470 nm.

The compound `CCOC(=O)c1c2c3c(ccc(F)c3c3cc4c(cc13)[Si](C)(C)O[Si]4(C)C)N(C)C2=O` registered an absorption maximum (in CC#N) of 380 nm.

Turning to `c1ccc2c(c1)c1ccccc1n2-c1cc(-c2nc3ccccn3n2)cc(-n2c3ccccc3c3ccccc32)c1`, the absorption maximum (in Cc1ccccc1) was determined as 338 nm.

For the compound `Clc1nnc(Oc2ccc(N(c3ccc(Br)cc3)c3ccc(Br)cc3)cc2)nn1`, under “in ClCCl”, the absorption maximum is recorded as 524 nm.

`COc1cccc(OC)c1C1=C2C(C)=CC(C)=[N+]2[B-](F)(F)n2c(C)cc(C)c21`: the absorption maximum runs as follows: (in C1CCOC1) 506 nm; (in CC#N) 500 nm; (in CC(=O)C(C)(C)C) 505 nm; (in CC(C)=O) 503 nm; (in CCCCCC) 507 nm; (in CCOC(C)=O) 504 nm. The absorption maximum (in CO) came out at 503 nm.

Compound `CCN(CC)c1ccc2nc3c4ccccc4c(=O)cc-3oc2c1` showed an absorption maximum (in C1COCCO1) of 519 nm; an absorption maximum (in CC#N) of 535 nm; an absorption maximum (in CC(C)=O) of 533 nm; an absorption maximum (in CCCCCC) of 508 nm; an absorption maximum (in CCO) of 549 nm; an absorption maximum (in CCOC(C)=O) of 524 nm. Moreover, the absorption maximum runs as follows: (in CO) 553 nm; (in CS(C)=O) 552 nm; (in Cc1ccccc1) 524 nm; (in ClCCl) 539 nm.

With `COc1ccc2cc(-c3ccc([N+](=O)[O-])cc3)ccc2c1`, the absorption maximum is on record as 344 nm (in C1CCOC1), 341 nm (in CC#N), 346 nm (in ClC(Cl)Cl) and 345 nm (in ClCCl).

With `COC(=O)/C=C/c1sc(-c2ccc(N(C)C)cc2)c(-c2ccc(OC)cc2)c1O`, the absorption maximum (in CC#N) is listed as 451 nm.

`CC[C@H](C)COc1ccc(C2=C3C(C)=CC(C)=[N+]3[B-](F)(F)n3c(C)cc(C)c32)cc1` gave an absorption maximum (in ClCCl) of 501 nm.

Where the note is “in C1CCOC1”, `O=S1(=O)C(c2ccsc2)=C(c2ccsc2)c2ccccc21` displayed an absorption maximum of 350 nm.

On to `Cc1ccc(C2CC(c3ccc(O)cc3)=NN2c2ccc(S(N)(=O)=O)cc2)cc1` (stereo not drawn), for which the absorption maximum by setting is: (in C1CCOC1) 359 nm; (in C1COCCO1) 360 nm; (in CC#N) 358 nm; (in CC(C)O) 358 nm; (in CCO) 358 nm; (in CCOC(C)=O) 358 nm. Also, the absorption maximum (in CN(C)C=O) turned out to be 362 nm, the absorption maximum (in CO) is 357 nm, the absorption maximum (in CS(C)=O) came out at 364 nm and the absorption maximum (in O) was determined as 360 nm.

Consider `F[B-]1(F)n2c(Oc3ccccc3)c(Cl)c(Br)c2C(Oc2ccccc2)=C2C(Br)=C(Cl)C(Oc3ccccc3)=[N+]21`, for which the absorption maximum (in ClCCl) is given as 533 nm.

On to `CCN(CC)c1ccc2c(c1)oc(=O)c1c(C)nc3c(c(-c4ccccc4)nn3C)c12`, for which, for the setting “in ClCCl”, the absorption maximum came out at 408 nm.

Consider `CC(=O)Nc1ccc2c(c1)c(=O)c1ccccc1n2CCCCCC(=O)O`, for which the absorption maximum (in O) was 398 nm.
